The results in this text go back to PMC10892836, “Hybrid Molecules of Azithromycin with Chloramphenicol and Metronidazole: Synthesis and Study of Antibacterial Properties” (Pharmaceuticals, 2024).

Values after ≈ are worked out from the molar mass of the structure shown.

Experiment [1] concerns cell-free bacterial translation system based on the E. coli S30 lysate. In words: In vitro translation in a cell-free bacterial system (firefly luciferase synthesis). In kind it is biochemical. Particulars: final concentration 5 μM; water control = 100%. The procedure: The inhibition of firefly luciferase (Fluc) synthesis by new azithromycin derivatives was assessed with the E. coli S30 Extract System for Linear Templates (Promega, Madison, WI, USA). Each reaction (5 μL total volume) was supplied with 0.1 mM mixture of all canonical amino acids, 4 U of RiboLock RNase Inhibitor (Thermo Fisher Scientific, Waltham, MA, USA), 0.1 mM of D-luciferin (Sigma-Aldrich, Burlington, MA, USA), 50 ng of firefly luciferase (Fluc) mRNA, and a chemical compound at a final concentration, as indicated in the main text, or nuclease-free water instead. Before the addition of mRNA, reaction tubes were pre-incubated at RT for 5 min and then placed back on ice. After the addition of mRNA, reaction mixtures were immediately subjected to continuous chemiluminescence measurement using the VICTOR X5 Multilabel Plate Reader (PerkinElmer, Waltham, MA, USA) at 37 °C for 30 min. Maximal rates of the firefly luciferase (Fluc) accumulation were calculated using the OriginPro 7.5 software. The values were normalized to a positive control (nuclease-free water, assigned a value of 100%). The results were visualized using the QtiPlot software (version 0.9.8.9).

In the next experiment the test system is E. coli ΔtolC pErmC. Kind of experiment: MIC, broth microdilution, E. coli ΔtolC panel. In kind it is cell-based. The following applies: Escherichia coli. The method, then:
(§1) The E. coli ΔtolC strain was also transformed with the pErmC, pErmCL-ErmC, and pERMZα plasmids. The resulting strains were grown at 37 °C in LB medium supplied with 100 μg/mL ampicillin.
(§2) MIC values for a panel of E. coli ΔtolC strains were determined via the broth microdilution assay as described here with minor modifications. Briefly, the overnight E. coli culture was diluted to an OD600 of 0.01 in the fresh LB medium supplied with 100 μg/mL ampicillin, if required. Then, the cells were additionally incubated for 1–1.5 h at 37 °C with shaking at 200 rpm (Shaker-Incubator ES-20/80, BioSan, Riga, Latvia). Meanwhile, 100 μL of the liquid growth medium was placed in each well of a 96-well sterile plate (200 μL was placed in column 1). Solutions of tested compounds were added in the first column of the plate at 2 times the final concentration of 200 μg/mL. Then, 2-fold serial dilutions were performed. Immediately before use, bacterial inoculum was diluted (1:100) in the growth medium, and 100 μL of it was transferred in each well except for the sterility control column. The plate was incubated overnight (16–20 h) at 37 °C with constant shaking at 200 rpm (Shaker-Incubator ES-20/80, BioSan, Riga Latvia). Cell growth was assessed by scanning the OD600 with a VICTOR X5 Multilabel Plate Reader (PerkinElmer, Waltham, MA, USA).
(§3) Minimum inhibitory concentration (MIC) was defined as the lowest concentration of a chemical compound that inhibits the visible growth of the bacterial strain. At least three replicates of MIC measurements were performed.
(Broth dilution looks for growth in wells or tubes with falling amounts of substance.)

For another experiment, the system named is E. coli ΔtolC pERMZα. In words: MIC, broth microdilution, E. coli ΔtolC panel. In kind it is cell-based. Particulars: Escherichia coli. The method, then:
as §1, §2, §3

A further experiment relates to 70S E. coli ribosomes. Kind of experiment: Competition-binding assay with BODIPY-ERY (fluorescence anisotropy). The following applies: displacement of BODIPY-ERY; means, 95% confidence intervals; read-out: Apparent dissociation constant KD. The procedure: Affinity of compounds to the 70S E. coli ribosomes (isolated from the E. coli MRE600 strain according to a published procedure) was evaluated with a competition-binding assay using fluorescently labeled erythromycin (BODIPY-ERY) as described earlier. Briefly, BODIPY-ERY (16 nM) was mixed with ribosomes (34 nM) in 384-well plates in the buffer containing 20 mM HEPES-KOH (pH 7.5), 50 mM NH4Cl, 10 mM Mg(CH3CO2)2, 4 mM β-mercaptoethanol, and 0.05% (v/v) Tween-20. Solutions of the tested compounds were added to the obtained complexes to final concentrations from 1 to 1000 nM and incubated for 2 h at 30 °C. The values of fluorescence anisotropy were obtained using the VICTOR X5 Multilabel Plate Reader (PerkinElmer, Waltham, MA, USA). Filters of 485 and 535 nm were used for excitation and emission, respectively. To calculate the apparent dissociation constants, the assumption that the competitive equilibrium binding of two ligands occurs at a single binding site was used. For each compound, at least 2 replicates were performed. Values of apparent dissociation constants are given as means with 95% confidence intervals. The results were visualized using the GraphPad Prism software (version 8.0.1).
(In general: Fluorescence polarisation rises when a labelled molecule tumbles more slowly, as on binding a larger partner.)

The subject of experiment [2] is E. coli ΔtolC pErmCL-ErmC. Kind of experiment: MIC, broth microdilution, E. coli ΔtolC panel. In kind it is cell-based. The procedure: In order to create the construct pErmCL-ErmC, the vector backbone was amplified using pZa-fwd (5′-TAAGAATTCTCTAGCCCG-3′) and pZa-rev (5′-[…]-3′) primers, and the pERMZα plasmid as a template. The ermC gene was amplified from the pERMCTP plasmid with ErmC-fwd (5′-[…]-3′) and ErmC-rev (5′-TAGGCGGGCTAGAGAATTC-3′) primers. The joining of two DNA fragments was performed using the NEBuilder® HiFi DNA Assembly Master Mix (New England Biolabs, Ipswich, MA, USA). Sequences of intermediate products and the final construct were confirmed by Sanger sequencing with appropriate primers.
as §1, §2, §3

For orientation: MIC means the lowest concentration that inhibits growth of the organism. In the case of `CC[C@H]1OC(=O)[C@H](C)[C@@H](O[C@H]2C[C@@](C)(OC)[C@@H](O)[C@H](C)O2)[C@H](C)[C@@H](O[C@@H]2O[C@H](C)C[C@H](N(C)C)[C@H]2O)[C@](C)(O)C[C@@H](C)CN(C)[C@H](C)[C@@H](O)[C@]1(C)O` [AZT, azithromycin], in experiment [1], the “Relative luciferase activity (relative maximal rate of Fluc accumulation)” value worked out at 0.3%. The MIC in the experiment with E. coli ΔtolC pErmC is over 200 µg/mL; in the experiment on E. coli ΔtolC pERMZα, 0.8 µg/mL (≈ 1.07 µM); in experiment [2] (Escherichia coli), 3.1 µg/mL (≈ 4.14 µM). Moreover, the Kd with 70S E. coli ribosomes is 0.4 ± 0.1 nM. In addition, the “Fold increase in the MIC value on E. coli ΔtolC pErmCL-ErmC compared to E. coli ΔtolC” value in experiment [2] is 4 fold.
